Source: publication PMC9823097, “Dysregulation of PRMT5 in chronic lymphocytic leukemia promotes progression with high risk of Richter’s transformation” (Nature Communications, 2023)

Key:
[1] = target: T1, recombinant human PRMT5/MEP50 (Homo sapiens, UniProt O14744); test: Filtration binding assay with recombinant human PRMT5/MEP50 (biochemical potency)
Description: For biochemical potency and selectivity, PRT382 was solubilized in 100% DMSO and diluted serially threefold. […] Standard reactions were performed in a total volume of 30 μl in assay buffer, with 300 nM histone H4-based AcH4-23 (Anaspec: AS-65002) as substrate. To this was added the PRMT5/MEP50 complex diluted to provide a final assay concentration of 2.5 nM, and the compounds were allowed to preincubate for 20 min at 37 °C. The reaction was initiated by adding S-[3 H-methyl]-adenosyl-L-methionine (PerkinElmer: NET155001MC) to a final concentration of 1 μM. Following a 30 min of incubation at 37 °C, the reaction was stopped by adding 25 μL of 8 M Guanidine HCl. To each reaction, 150 µL of SPA beads suspension (Perkinelmer: RPNQ0012) was added and incubated while shaking at room temperature for 30 min. The plate was centrifuged at 100 xg for 30 s before reading in a scintillation counter. IC50 values were determined by fitting the data to with Hill Slope using GraphPad Prism software (v9.2.0).

JVM-2 = test: Anti-proliferative activity, MTS assay, JVM-2; assay type: cell-based; details: Homo sapiens, DLBCL, read-out: PRT382 IC50 (anti-proliferative)
Description: (§1) Cell proliferation was assessed via MTS (3-[4,5-dimethylthiazol-2-yl]-5-[3-carboxymethoxyphenyl]-2-[4-sulfophenyl]-2H-tetrazolium) assay (Sigma), using the tetrazolium dye […]. Cell apoptosis was evaluated by Annexin V-FITC or PE and propidium iodide (PI) staining using FC500 cytometer (Beckman-Coulter, Indianapolis, IN) following the manufacturer’s procedure (BD Pharmingen, Billerica, MA)[55]. For cell cycle analysis, cells were fixed with cold ethanol overnight and then stained before analysis with 30 μg/mL propidium iodide (Invitrogen) and 200 μg/mL RNase (Sigma-Aldrich) in 0.1 % v/v Triton X-100 (Sigma-Aldrich). Cell cycle data analysis was performed using ModFit LT software (Verity Software House, Topsham, ME).

RL = test: Anti-proliferative activity, MTS assay, RL; assay type: cell-based; details: Homo sapiens, DLBCL, read-out: PRT382 IC50 (anti-proliferative)
Description: as §1

Jurkat = test: Anti-proliferative activity, MTS assay, Jurkat; assay type: cell-based; details: Homo sapiens, T-cell line, read-out: PRT382 IC50 (anti-proliferative)
Description: as §1

[2] = Pharmacokinetics in mice (clearance, oral bioavailability, AUC); assay type: in vivo
[3] = Tolerability after 5 daily oral doses in WT CD-1 mice; assay type: in vivo; details: 10, 30 and 100 mg/kg
Description: For in vitro assays, the compound was stored in a 10 mM solution in DMSO. For in vivo assays, PRT382 was dissolved in a 0.5% methylcellulose, 0.1% tween solution, and administered as oral gavage. For Pharmacokinetic studies, PRT382 was formulated in 0.5% carboxymethylcellulose sodium salt + 0.5%Tween80 as a 1 mg/mL suspension for 10 mg/kg and was administered in a 10 mL/kg dose volume by oral gavage to CD-1 mice. Blood was collected at various time points after dosing into EDTA-K2 tubes, placed on ice, and stored at −80 °C prior to analysis by LC-MS/MS. For biochemical potency and selectivity, PRT382 was solubilized in 100% DMSO and diluted serially threefold. For assessment of selectivity, enzyme activity against a panel of 37 methyltransferases was evaluated using 3H-SAM as a radioligand probe with filtration binding. PRT382 was tested in duplicate at a final concentration of 10 µM. The percent of enzyme activity relative to DMSO control condition was determined for each enzyme.

Mec-1 CLL cell line = test: Global symmetric dimethyl arginine (SDMA) western blot, Mec-1; assay type: cell-based; details: Mec-1, 72 h treatment
Source text: Proteins extracted from whole-cell lysates were resolved by SDS-PAGE and transferred on nitrocellulose membrane as previously described. CpG685 oligonucleotide was obtained from the OSU Cytogenetics Core Lab. Antibodies used for immunoblots included anti-human PRMT5 (Abcam #ab109451), GAPDH (Millipore Sigma #MAB374), SDMA (Cell Signaling Technology #13222), c-Myc (Cell Signaling Technology #5605S), and β-Actin (Cell Signaling Technology #4967S). Cas9-mediated doxycycline-inducible knockout of PRMT5 utilized a targeted sgRNA (guide sequence: […], PAM: GGG).

[4] = target: T1, recombinant human PRMT5/MEP50; test: Filtration binding assay with recombinant human PRMT5/MEP50 (biochemical potency); details: histone H2A as the protein substrate

T1 sequence (O14744 whole entry): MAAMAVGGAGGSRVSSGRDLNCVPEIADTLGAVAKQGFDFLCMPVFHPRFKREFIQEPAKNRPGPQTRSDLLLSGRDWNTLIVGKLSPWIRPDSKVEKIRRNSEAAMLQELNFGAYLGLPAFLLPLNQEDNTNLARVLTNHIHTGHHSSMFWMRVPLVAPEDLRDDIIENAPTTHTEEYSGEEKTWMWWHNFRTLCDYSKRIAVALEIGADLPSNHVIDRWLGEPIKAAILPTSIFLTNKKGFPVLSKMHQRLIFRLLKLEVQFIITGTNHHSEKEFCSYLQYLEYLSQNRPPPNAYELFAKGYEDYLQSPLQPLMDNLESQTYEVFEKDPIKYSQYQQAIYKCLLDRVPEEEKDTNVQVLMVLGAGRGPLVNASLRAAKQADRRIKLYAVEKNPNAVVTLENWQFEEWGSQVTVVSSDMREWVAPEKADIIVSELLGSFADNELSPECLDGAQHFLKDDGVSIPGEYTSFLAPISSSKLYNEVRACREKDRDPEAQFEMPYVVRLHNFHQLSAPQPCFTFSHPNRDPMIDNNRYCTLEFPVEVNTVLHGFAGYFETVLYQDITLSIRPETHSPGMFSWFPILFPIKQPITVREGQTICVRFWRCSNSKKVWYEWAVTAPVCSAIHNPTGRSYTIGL
T1 sequence (Q9BQA1 whole entry partner): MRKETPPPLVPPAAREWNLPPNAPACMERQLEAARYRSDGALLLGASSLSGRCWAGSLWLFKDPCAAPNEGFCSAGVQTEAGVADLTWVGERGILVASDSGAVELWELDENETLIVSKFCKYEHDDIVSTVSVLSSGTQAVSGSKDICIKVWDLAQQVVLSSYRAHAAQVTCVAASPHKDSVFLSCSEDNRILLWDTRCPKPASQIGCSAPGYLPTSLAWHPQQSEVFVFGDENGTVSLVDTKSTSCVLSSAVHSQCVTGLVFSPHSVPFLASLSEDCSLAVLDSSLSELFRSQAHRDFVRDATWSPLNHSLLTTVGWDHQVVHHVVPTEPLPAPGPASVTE

In the case of `CON=c1nc[nH]c2c1ccn2[C@@H]1O[C@H]([C@H](O)c2ccc(Cl)c(Cl)c2)[C@@H](O)[C@H]1O.Cl` [PRT382, (2 R,3 S,4 R,5 R)-2-[(R)-(3,4-dichlorophenyl)-hydroxy-methyl]-5-[(4Z)-4-methoxyimino-1H-pyrrolo[2,3-d]pyrimidin-7-yl]tetrahydrofuran-3,4-diol hydrochloride], the “PRT382 dose-response signal (Figure 6C; DMSO = 100.515)” value (“PRT382 dose-response signal” below) ([1]; 508.1 pM) is reported as 76.3419, the “PRT382 dose-response signal” value ([1]; 1.52416e-9 M) is reported as 63.1814 and the “PRT382 dose-response signal” value ([1]; 4.57247e-9 M) is reported as 38.5693. For the same compound, the “PRT382 dose-response signal” value ([1]; 1.37174e-8 M) was 22.7886, the “PRT382 dose-response signal” value ([1]; 4.11523e-8 M) was 12.7118 and the “PRT382 dose-response signal” value ([1]; 1.23457e-7 M) was 6.679. The “PRT382 dose-response signal” value ([1]; 3.7037e-7 M) was 2.863, the “PRT382 dose-response signal” value ([1]; 1.11111e-6 M) was 1.261 and the “PRT382 dose-response signal” value ([1]; 3.33333e-6 M) was 0.4291. For the same compound, the “PRT382 dose-response signal” value ([1]; 1e-5 M) was 0.1164, the IC50 (JVM-2) was 0.01 µM and the IC50 (RL) was 0.016 µM. For the same compound, the IC50 (Jurkat) was > 1 µM, the clearance [2] was “low” and the bioavailability ([2]; mouse, in vivo, po, read-out: oral bioavailability (F%)) was 70 to 80%. The tolerability [3] was “well-tolerated”, the observable toxicity ([3]; after 5 daily oral doses) was “without observable toxicity” and the “lowest dose with decrease in global SDMA residues” value (Mec-1 CLL cell line) was 100 nM. The IC50 [4] was 0.0028 µM.
